IC50, Ki and Ke data for four compounds are collected here from ChEMBL document CHEMBL1153667, “6N-Cinnamoyl--naltrexamine and its p-nitro derivative. High efficacy -opioid agonists with weak antagonist actions” (Bioorg Med Chem Lett, 1996).

Activity calls are given as the source filed them. The rule behind the calls is not given here.

Assay [1] addresses T1, Kappa-type opioid receptor (Mus musculus, UniProt P33534). The experiment in a line: Compound was evaluated for kappa opioid receptor mediated agonistic effect in mouse vas deferens(MVD) preparations. Format: functional.
The next assay has as its target Mu-type opioid receptor (Cavia porcellus, UniProt P97266). As to the kind of experiment: Compound was evaluated for binding affinity against [3H]- DAMGO labeled mu opioid receptor in guinea-pig brain homogenate. Format: tissue-based.
Assay [2] addresses T2, Kappa-type opioid receptor (Cavia porcellus, UniProt P41144). The experiment in a line: Compound was evaluated for binding affinity against [3H]- bremazocine labeled kappa2 opioid receptor in guinea-pig brain homogenate. Format: tissue-based.
Assay [3] deals with T2, Kappa-type opioid receptor. As to the kind of experiment: Compound was evaluated for binding affinity against [3H]- U-69593 labeled kappa1 opioid receptor in guinea-pig brain homogenate. Type of assay: tissue-based.
The species entered for a further assay is Mus musculus. As to the kind of experiment: Antagonism by the selective kappa-antagonist nor-binaltorphimine (nor-BNl) in mouse vas deferens(MVD) preparations. Format: functional.
Assay [4] addresses T2, Kappa-type opioid receptor. As to the kind of experiment: Compound was evaluated for kappa opioid receptor mediated agonistic effect in electrically stimulated guinea-pig ileum. Format: functional, tissue-based.
For assay [5], the species on record is Cavia porcellus. As to the kind of experiment: Antagonism by the selective kappa-antagonist nor-binaltorphimine (nor-BNl) in electrically stimulated guinea-pig ileum. Format: functional.
The target of assay [6] is T1, Kappa-type opioid receptor. The experiment in a line: Compound was evaluated for kappa opioid receptor mediated agonistic effect in mouse vas deferens(MVD) preparations; Not an agonist. Type of assay: functional.
For assay [7], the species on record is Cavia porcellus. As to the kind of experiment: Antagonism by the selective kappa-antagonist nor-binaltorphimine (nor-BNl) in electrically stimulated guinea-pig ileum; No inhibition. Type of assay: functional.

T1 sequence (P33534 whole entry): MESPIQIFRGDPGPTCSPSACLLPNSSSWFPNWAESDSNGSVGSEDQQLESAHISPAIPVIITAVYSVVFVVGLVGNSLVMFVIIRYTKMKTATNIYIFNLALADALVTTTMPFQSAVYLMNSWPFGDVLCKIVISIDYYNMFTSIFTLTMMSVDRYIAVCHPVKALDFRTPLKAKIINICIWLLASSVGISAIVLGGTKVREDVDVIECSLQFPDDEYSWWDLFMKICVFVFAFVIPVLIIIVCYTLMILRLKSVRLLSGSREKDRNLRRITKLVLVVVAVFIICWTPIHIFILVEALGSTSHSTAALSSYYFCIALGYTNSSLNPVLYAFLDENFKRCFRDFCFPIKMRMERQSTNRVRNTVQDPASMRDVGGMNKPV
Mu-type opioid receptor, sequence (P97266 whole entry): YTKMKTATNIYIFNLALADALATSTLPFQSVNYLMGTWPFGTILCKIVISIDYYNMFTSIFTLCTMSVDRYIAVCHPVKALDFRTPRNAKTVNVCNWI
T2 sequence (P41144 whole entry): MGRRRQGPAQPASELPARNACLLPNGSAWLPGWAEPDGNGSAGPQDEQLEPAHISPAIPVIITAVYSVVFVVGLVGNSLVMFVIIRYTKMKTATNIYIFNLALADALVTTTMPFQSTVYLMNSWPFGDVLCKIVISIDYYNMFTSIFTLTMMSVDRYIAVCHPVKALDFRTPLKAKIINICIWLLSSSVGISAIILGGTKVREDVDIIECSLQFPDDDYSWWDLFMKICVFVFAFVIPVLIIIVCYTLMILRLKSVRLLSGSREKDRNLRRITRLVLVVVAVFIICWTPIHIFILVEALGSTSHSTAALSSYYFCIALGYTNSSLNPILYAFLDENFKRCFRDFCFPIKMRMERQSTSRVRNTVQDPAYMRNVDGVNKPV

As for `O=C(/C=C/c1ccccc1)N[C@@H]1CC[C@@]2(O)[C@H]3Cc4ccc(O)c5c4[C@@]2(CCN3CC2CC2)[C@H]1O5`, the half-maximal inhibitory concentration (IC50) (as a rule, the concentration that gives 50% inhibition) stood at 5.6 nM in [1] and 0.4 nM in assay [4]. Also, the inhibitory constant (Ki) (usually a measure of affinity in units of concentration, obtained from inhibition or displacement) was found to be 0.07 nM on Mu-type opioid receptor, 12.8 nM in [2] and 0.2 nM in assay [3]. Moreover, the Ke in the assay filed under Mus musculus amounted to 5.1 nM; in the assay filed under Cavia porcellus [5], 0.5 nM.

As to `O=C(/C=C/c1ccc(Cl)cc1)N[C@@H]1CC[C@@]2(O)[C@H]3Cc4ccc(O)c5c4C2(CCN3CC2CC2)[C@H]1O5`, the figures for the Ki (at Mu-type opioid receptor; in assay [2]; in assay [3]) were 0.1 nM, 48.3 nM and 0.2 nM, respectively. The 50% inhibitory concentration (IC50) is 2.2 nM in assay [4] and “Not Active” in [6]. In addition, the Ke in the assay filed under Cavia porcellus [5] was 0.3 nM.

With `O=C(/C=C/c1ccc([N+](=O)[O-])cc1)N[C@@H]1CC[C@@]2(O)[C@H]3Cc4ccc(O)c5c4C2(CCN3CC2CC2)[C@H]1O5`, the Ki on Mu-type opioid receptor worked out at 0.2 nM; in assay [2] it was 30.5 nM; in assay [3] it was 0.8 nM. Also, the results for the IC50 in assay [4] and in assay [6] were 13.4 nM and “Not Active”, respectively. Further, in the assay listed under Cavia porcellus [7], the Ke entry was “inactive”.

Consider `Cc1ccc(/C=C/C(=O)N[C@@H]2CC[C@@]3(O)[C@H]4Cc5ccc(O)c6c5C3(CCN4CC3CC3)[C@H]2O6)cc1`, for which the values for the IC50 in assay [1] and in assay [4] were 17100 nM and 12.6 nM, respectively. Further, the Ki at Mu-type opioid receptor came out at 0.23 nM; in assay [2], 171 nM; in [3] it was 0.6 nM. The Ke in the assay listed under Cavia porcellus [5] turned out to be 0.2 nM.
